Measurements taken from US12344610B2, “APOL1 inhibitors and methods of use” (Maze Therapeutics, Inc., priority 2022, dated 2025).

How the values were obtained:
Format in all cases: cell-based
[1] = test system: Trypanosoma brucei Lister 427 VSG221 with APOL1 G2 recombinant protein; test: APOL1 G2 trypanosome cell rescue assay (Example B5); conditions: Trypanosoma brucei, 20 h, read-out: APOL1 G2 Trypanosome Rescue EC50, Trypanosoma brucei Lister 427 VSG221 with APOL1 G2 recombinant protein, 20 hours, CellTiter-Glo; geometric mean of at least 2 assay runs; † = single assay run
Outline: (§1)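 Mature APOL1 (residues 28-398, E. coli-expressed, His-tag removed by TEV) was added as a 2 μg/mL solution to T. brucei Lister 427 VSG221 in modified HMI-9 medium at 250 cells/well, with duplicate 11-point 2-fold compound dilutions (0.4% DMSO). After 20 h at 37° C, 5% CO2, viability was read by CellTiter-Glo luminescence.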

[2] = test system: Trypanosoma brucei Lister 427 VSG221 with APOL1 G1 recombinant protein; test: APOL1 G1 trypanosome cell rescue assay (Example B5); conditions: Trypanosoma brucei, 20 h, read-out: APOL1 G1 Trypanosome Rescue EC50, Trypanosoma brucei Lister 427 VSG221 with APOL1 G1 recombinant protein, 20 hours, CellTiter-Glo; geometric mean of at least 2 assay runs; † = single assay run
Outline: as §1

[3] = test system: HEK293 clonal cell line overexpressing APOL1 G1; test: APOL1 G1 HEK293 cell rescue assay (Example B3); conditions: Homo sapiens, HEK293, HEK293 clonal line overexpressing APOL1 G1; geometric mean of at least 2 runs; † = single run; ¥ = concentration at 50% rescue estimated (no sigmoidal curve)
Outline: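 HEK293 clonal line overexpressing APOL1 G1; EC50 is half-maximal reversal of APOL1-induced cell death. Values are the geometric mean of ≥2 runs on separate days, each run the average of duplicate wells. Where no sigmoidal curve could be fitted, the concentration giving 50% rescue was estimated.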

[4] = test system: Trypanosoma brucei Lister 427 VSG221 with APOL1 G0 recombinant protein; test: APOL1 G0 trypanosome cell rescue assay (Example B5); conditions: Trypanosoma brucei, 20 h, read-out: APOL1 G0 Trypanosome Rescue EC50, Trypanosoma brucei Lister 427 VSG221 with APOL1 G0 recombinant protein, 20 hours, CellTiter-Glo; geometric mean of at least 2 assay runs; † = single assay run
Outline: as §1

With `Cn1ncc2cc(OCCN3CCC4(CC3)C(=O)Nc3ccccc34)ccc21` [Compound 70, 1′-{2-[(1-methyl-1H-indazol-5-yl)oxy]ethyl}-1,2-dihydrospiro[indole-3,4′-piperidin]-2-one] the EC50 [1] was 918 nM, the EC50 [2] was > 4000 nM and the EC50 [3] was > 2530 nM. For the same compound, the EC50 [4] was > 4000 nM.
Work on `CS(=O)(=O)c1ccc(OCCN2CCC3(CC2)C(=O)Nc2ccc(C#N)cc23)cc1` [Compound 71, 1′-[2-(4-methanesulfonylphenoxy)ethyl]-2-oxo-1,2-dihydrospiro[indole-3,4′-piperidine]-5-carbonitrile] yielded an EC50 [1] of 205 nM, an EC50 [2] of 1360 nM and an EC50 [3] of 1340 nM. The EC50 [4] was 814 nM.
With `CS(=O)(=O)c1ccc(OCCN2CCC3(CC2)C(=O)Nc2ccc(Br)cc23)cc1` [Compound 72, 5-bromo-1′-[2-(4-methanesulfonylphenoxy)ethyl]-1,2-dihydrospiro[indole-3,4′-piperidin]-2-one] the EC50 [1] was 45.7 nM, the EC50 [2] was 177 nM and the EC50 [3] was 161 nM. The EC50 [4] was 128 nM.
In the case of `CN(c1ccc(OCCN2CCC3(CC2)C(=O)Nc2ccc(C#N)cc23)cc1)S(C)(=O)=O` [Compound 75, N-[4-(2-{5-cyano-2-oxo-1,2-dihydrospiro[indole-3,4′-piperidin]-1′-yl}ethoxy)phenyl]-N-methylmethanesulfonamide], the EC50 [1] is reported as 146 nM, the EC50 [2] is reported as 578 nM and the EC50 [3] is reported as 406 nM. The EC50 [4] was 383 nM.
In the case of `CN(c1ccc(OCCN2CCC3(CC2)C(=O)Nc2ccc(Cl)cc23)cc1)S(C)(=O)=O` [Compound 76, N-[4-(2-{5-chloro-2-oxo-1,2-dihydrospiro[indole-3,4′-piperidin]-1′-yl}ethoxy)phenyl]-N-methylmethanesulfonamide], the EC50 [1] is reported as 35.5 nM, the EC50 [2] is reported as 126 nM and the EC50 [3] is reported as 190 nM. It also gave an EC50 [4] of 106 nM.
With `CS(C)(=O)=Nc1ccc(OCCN2CCC3(CC2)C(=O)Nc2ccc(C#N)cc23)cc1` [Compound 77, 1′-[2-(4-{[dimethyl(oxo)-λ^6-sulfanylidene]amino}phenoxy)ethyl]-2-oxo-1,2-dihydrospiro[indole-3,4′-piperidine]-5-carbonitrile] the EC50 [1] was 1450 nM, the EC50 [2] was > 4000 nM and the EC50 [3] was > 4760 nM. The EC50 [4] was > 4000 nM.
With `CN1C(=O)CCc2cc(OCCN3CCC4(CC3)C(=O)Nc3ccc(Cl)cc34)cnc21` [Compound 78, 5-chloro-1′-{2-[(8-methyl-7-oxo-5,6,7,8-tetrahydro-1,8-naphthyridin-3-yl)oxy]ethyl}-1,2-dihydrospiro[indole-3,4′-piperidin]-2-one] the EC50 [1] was 32.6 nM, the EC50 [2] was 97.6 nM and the EC50 [3] was 128 nM. The EC50 [4] was 95.2 nM.
In the case of `CN1C(=O)CCc2cc(OCCN3CCC4(CC3)C(=O)Nc3ccc(C#N)cc34)cnc21` [Compound 79, 1′-{2-[(8-methyl-7-oxo-5,6,7,8-tetrahydro-1,8-naphthyridin-3-yl)oxy]ethyl}-2-oxo-1,2-dihydrospiro[indole-3,4′-piperidine]-5-carbonitrile], the EC50 [1] is reported as 293 nM, the EC50 [2] is reported as 952 nM and the EC50 [3] is reported as 533 nM. It also gave an EC50 [4] of 846 nM.
`CC(C)[C@]1(O)C[C@@H](N2C(=O)CCc3cc(OCCN4CCC5(CC4)C(=O)Nc4ccc(Cl)cc45)cnc32)C1` [Compound 317, 5-chloro-1′-[2-({7-oxo-8-[(cis)-3-hydroxy-3-(propan-2-yl)cyclobutyl]-5,6,7,8-tetrahydro-1,8-naphthyridin-3-yl}oxy)ethyl]-1,2-dihydrospiro[indole-3,4′-piperidin]-2-one] showed an EC50 [1] of 11.5 nM, an EC50 [2] of 33.5 nM and an EC50 [3] of 45.6 nM. The EC50 [4] was 33 nM.
In the case of `C[C@]1(O)C[C@@H](n2c(=O)ccc3cc(OCCN4CCC5(CC4)C(=O)Nc4ccc(Cl)cc45)cnc32)C1` [Compound 323, 5-chloro-1′-[2-({7-oxo-8-[(cis)-3-hydroxy-3-methylcyclobutyl]-7,8-dihydro-1,8-naphthyridin-3-yl}oxy)ethyl]-1,2-dihydrospiro[indole-3,4′-piperidin]-2-one], the EC50 [1] is reported as 11.8 nM, the EC50 [2] is reported as 35.9 nM and the EC50 [3] is reported as 36.4 nM. For the same compound, the EC50 [4] was 32 nM.
For `C[C@]1(O)C[C@@H](n2c(=O)ccc3cc(OCCN4CCC5(CC4)C(=O)Nc4ccc(C(F)F)cc45)cnc32)C1` [Compound 324, 5-(difluoromethyl)-1′-[2-({7-oxo-8-[(cis)-3-hydroxy-3-methylcyclobutyl]-7,8-dihydro-1,8-naphthyridin-3-yl}oxy)ethyl]-1,2-dihydrospiro[indole-3,4′-piperidin]-2-one], the EC50 [1] was 8.31 nM, the EC50 [2] was 35 nM and the EC50 [3] was 40.8 nM. It also gave an EC50 [4] of 28.9 nM.
In the case of `O=C1CCc2cc(OCCN3CCC4(CC3)C(=O)Nc3ccc(Cl)cc34)cnc2N1C1CC(CO)C1` (stereo not drawn) [Compound 326, 5-chloro-1′-[2-({8-[3-(hydroxymethyl)cyclobutyl]-7-oxo-5,6,7,8-tetrahydro-1,8-naphthyridin-3-yl}oxy)ethyl]-1,2-dihydrospiro[indole-3,4′-piperidin]-2-one], the EC50 [1] is reported as 32.7 nM, the EC50 [2] is reported as 94.4 nM and the EC50 [3] is reported as 104 nM. The EC50 [4] was 88.6 nM.
`CC1(O)CC(CN2C(=O)CCc3cc(OCCN4CCC5(CC4)C(=O)Nc4ccc(Cl)cc45)cnc32)C1` (stereo not drawn) [Compound 327, 5-chloro-1′-[2-({8-[(3-hydroxy-3-methylcyclobutyl)methyl]-7-oxo-5,6,7,8-tetrahydro-1,8-naphthyridin-3-yl}oxy)ethyl]-1,2-dihydrospiro[indole-3,4′-piperidin]-2-one] was tested, and the EC50 [1] was 13.4 nM, the EC50 [2] was 46.6 nM and the EC50 [3] was 84.4 nM. For the same compound, the EC50 [4] was 39.9 nM.
Work on `C[C@]1(O)C[C@@H](n2c(=O)ccc3cc(OCCN4CCC5(CC4)C(=O)Nc4ccc(OC(F)F)cc45)cnc32)C1` [Compound 328, 5-(difluoromethoxy)-1′-[2-({7-oxo-8-[(cis)-3-hydroxy-3-methylcyclobutyl]-7,8-dihydro-1,8-naphthyridin-3-yl}oxy)ethyl]-1,2-dihydrospiro[indole-3,4′-piperidin]-2-one] yielded an EC50 [1] of 23.9 nM, an EC50 [2] of 92.1 nM and an EC50 [3] of 98.2 nM. For the same compound, the EC50 [4] was 79.9 nM.
`O=C1Nc2ccc(Cl)cc2C12CCN(CCOc1cnc(C3(CO)CC3)nc1)CC2` [Compound 333, 5-chloro-1′-[2-({2-[1-(hydroxymethyl)cyclopropyl]pyrimidin-5-yl}oxy)ethyl]-1,2-dihydrospiro[indole-3,4′-piperidin]-2-one] gave an EC50 [1] of 74 nM, an EC50 [2] of 205 nM and an EC50 [3] of 98.6 nM. The EC50 [4] was 152 nM.
Compound `CP(C)(=O)C1(c2ccc(OCCN3CCC4(CC3)C(=O)Nc3ccc(Cl)cc34)cc2)CC1` [Compound 343, 5-chloro-1′-(2-{4-[1-(dimethylphosphoryl)cyclopropyl]phenoxy}ethyl)-1,2-dihydrospiro[indole-3,4′-piperidin]-2-one] has an EC50 [1] of 64.2 nM, an EC50 [2] of 203 nM and an EC50 [3] of 431 nM. The EC50 [4] was 174 nM.
With `C[C@]1(O)C[C@@H](N2C(=O)Cc3cc(OCCN4CCC5(CC4)C(=O)Nc4ccc(Cl)cc45)cnc32)C1` [Compound 345, 5-chloro-1′-[2-({2-oxo-1-[(cis)-3-hydroxy-3-methylcyclobutyl]-1H,2H,3H-pyrrolo[2,3-b]pyridin-5-yl}oxy)ethyl]-1,2-dihydrospiro[indole-3,4′-piperidin]-2-one] the EC50 [1] was 80.2 nM, the EC50 [2] was 242 nM and the EC50 [3] was 79 nM. The EC50 [4] was 161 nM.
Work on `C[C@]1(O)C[C@@H](N2C(=O)Cc3cc(OCCN4CCC5(CC4)C(=O)Nc4ccc(C(F)F)cc45)cnc32)C1` [Compound 346, 5-(difluoromethyl)-1′-[2-({2-oxo-1-[(cis)-3-hydroxy-3-methylcyclobutyl]-1H,2H,3H-pyrrolo[2,3-b]pyridin-5-yl]oxy)ethyl]-1,2-dihydrospiro[indole-3,4′-piperidin]-2-one] yielded an EC50 [1] of 37.7 nM, an EC50 [2] of 116 nM and an EC50 [3] of 83.7 nM. It also gave an EC50 [4] of 83.6 nM.
In the case of `C[C@]1(O)C[C@@H](n2ccc3cc(OCCN4CCC5(CC4)C(=O)Nc4ccc(Cl)cc45)cnc32)C1` [Compound 349, 5-chloro-1′-[2-({1-[(cis)-3-hydroxy-3-methylcyclobutyl]-1H-pyrrolo[2,3-b]pyridin-5-yl}oxy)ethyl]-1,2-dihydrospiro[indole-3,4′-piperidin]-2-one], the EC50 [1] is reported as 33.1 nM, the EC50 [2] is reported as 89.8 nM and the EC50 [3] is reported as 73.5 nM. For the same compound, the EC50 [4] was 64.6 nM.
For `C[C@]1(O)C[C@@H](n2cnc3cc(OCCN4CCC5(CC4)C(=O)Nc4ccc(Cl)cc45)cc(C(F)(F)F)c32)C1` [Compound 352, 5-chloro-1′-[2-({1-[(cis)-3-hydroxy-3-methylcyclobutyl]-7-(trifluoromethyl)-1H-1,3-benzodiazol-5-yl}oxy)ethyl]-1,2-dihydrospiro[indole-3,4′-piperidin]-2-one], the EC50 [1] was 8.22 nM, the EC50 [2] was 18.8 nM and the EC50 [3] was 9.95 nM. It also gave an EC50 [4] of 18.7 nM.
With `C[C@]1(O)C[C@@H](N2C(=O)NCc3cc(OCCN4CCC5(CC4)C(=O)Nc4ccc(Cl)cc45)cnc32)C1` [Compound 356, 5-chloro-1′-[2-({2-oxo-1-[(cis)-3-hydroxy-3-methylcyclobutyl]-1H,2H,3H,4H-pyrido[2,3-d]pyrimidin-6-yl}oxy)ethyl]-1,2-dihydrospiro[indole-3,4′-piperidin]-2-one] the EC50 [1] was 37.4 nM, the EC50 [2] was 113 nM and the EC50 [3] was 162 nM. It also gave an EC50 [4] of 101 nM.
